# Experimental data reported in publication PMC6321145 (Molecules, 2018).
# Experiments:
# [1] = tested on: mice; assay: Step-down passive avoidance test, scopolamine-induced memory impairment; format: in vivo
# Procedure: A step-down passive avoidance test was used to assess learning and memory in mice. The apparatus (Shanghai XinRuan, Shanghai, China) consisted of two identically sized compartments, with a guillotine door to separate light and dark. Illumination was available in the light box through LED lights at 250 lux. The mice underwent two separate trials: a training trial and a test trial 24 h later. For training trial, mice were initially placed in the light compartment and were allowed to explore the environment freely for 5 min so that they can be familiar with the environment. Then the door was opened, the mice tried to enter the dark compartment since they preferred to stay in dark place. As soon as the mice came into the dark compartment, an electrical shock was delivered through the steel rods. The training lasted for 5 min. […] The test trial was preformed after 24 h. The mice were placed into the light compartment and the door was opened. The time that the mouse spent to enter the dark compartment was recorded as the latency. The numbers that the mouse entered the dark compartment during 5 min were measured as error numbers.
# [2] = target: AChE (Homo sapiens, UniProt P22303); assay: AChE inhibition (data not shown); format: biochemical
# [3] = target: BuChE (Homo sapiens, UniProt P06276); assay: BuChE inhibition (data not shown); format: biochemical
# [4] = target: T1, Aβ1–42 fibrils (Homo sapiens, UniProt P05067); assay: Disaggregation of self-induced Aβ1–42 aggregation fibrils (ThT binding assay); format: biochemical; conditions: compound 20 μM, fibrils formed 24 h, then 24 h with compound, 37 °C
# T1 construct: Aβ1–42 (Sigma, St. Louis, MO, USA; counterion, NaOH) stock solution was prepared by dissolving Aβ1–42 peptide in ammonium hydroxide; purchased Sigma
# Procedure: The ability of compound 6b1 to disaggregate self-induced Aβ1–42 aggregation fibrils was also investigated. Aβ1–42 fibrils were prepared by incubating fresh Aβ1–42 for 24 h at 37 °C, and the test compound was added to the sample and incubated for another 24 h at 37 °C. Then the sample was analyzed by ThT binding assay and TEM assay.
# [5] = Metal chelation by UV-vis spectrometry; format: physicochemical
# Procedure: The chelation ability of compound 6b1 toward biometals such as Na^+, K^+, Cu^2+, Fe^2+, Mg^2+, Ca^2+, and Zn^2+ was studied by UV-vis spectrometry. […] Its ability to selectively chelate Cu^2+ versus other relevant metal ions was further investigated by UV-vis spectrometry. Solution of compound 6b1 was prepared and treated with the metal ion (Zn^2+, Fe^2+, Ca^2+, Mg^2+, Na^+ and K^+), after 10 min incubation, the optical response was observed, followed by addition of Cu^2+ and consequent analysis of further spectral changes.
# In order to further determine the stoichiometry of compound 6b1 for Cu^2+ binding, the UV spectra was performed by titrations of compound 6b1 upon stepwise additions of a Cu^2+ solution.
# The metal chelation of compound 6b1 was tested in ethanol using a UV-vis spectrophotometer (Shimadzu UV-2450PC) with wavelength ranging from 200 to 700 nm. The absorption spectra of compound 6b1 (10 μM, final concentration) alone or in the presence of metal ions (20 μM, final concentration) after incubation for 30 min at room temperature, was recorded at room temperature in a 1 cm quartz cell. Each sample was repeated for at least three times.
# Experiments for the determination of metal ion binding selectivity were carried as follows. 20.0 mM stock solutions of CuSO4, ZnSO4, FeSO4, CaCl2, MgCl2, NaCl and KCl in MQ water were prepared and then diluted to 1.0 mM using ethanol. […] 10 μL solutions of the compounds treated with 10 μL of ZnSO4, FeSO4, CaCl2, MgCl2, NaCl and KCl. Spectra were recorded after 10 min incubation at 25 °C. The metal binding selectivity was assessed by then adding 10 μL of CuSO4 solution and incubating for 10 additional min at 25 °C. Selectivity was quantified by comparing and normalizing the absorbance values of the maximum in each case with the absorbance of the solution at the same wavelength after addition of CuSO4.
# For binding stoichiometry assay, A fixed amount of compound 6b1 (20 μM) was mixed with growing amounts of copper ion (0–20 μM) and tested the difference UV-vis spectra to investigate the ratio of ligand/metal in the complex.
# [6] = Oxygen radical absorbance capacity with fluorescein (ORAC-FL) assay; conditions: compound 1 μM
# Procedure: Oxidative stress is another crucial event in AD pathogenesis. In order to determine antioxidant activities of our synthetic compounds, the oxygen radical absorbance capacity method with fluorescein (ORAC-FL) assay was performed. with Trolox (6-hydroxy-2,5,7,8-tetramethylchroman-2-carboxylic acid) as the standard, and their antioxidant activity was expressed as Trolox equivalents.
# The antioxidant activities of the compounds in vitro were determined by the oxygen radical absorbance capacity fluorescein (ORAC-FL) assay. The tested compounds and (±)-6-hydroxy-2,5,7,8-tetramethylchroman-2-carboxylic acid (Trolox) were dissolved in DMSO at a concentration of 10 mM, and then diluted with 75 mM potassium phosphate buffer (pH 7.4) to 50 μM and 10 μM for use. The fluorescein (FL) stock solution (3.4 mM) was diluted with the same buffer to 136 nM. All the assays were conducted with 75 mM potassium phosphate bufffer (pH 7.4), and the final reaction mixture was 200 μL.
# The mixture of compounds (or buffer) (20 μL) and fluorescein (FL, 120 μL) were incubated for 15 min at 37 °C in a black 96-well plate. Then 2,2′-azobis-(amidino-propane)-dihydrochloride (AAPH) solution (60 μL, 40 mM) was rapidly added to the reaction mixture. The fluorescence was recorded every 5 min for 240 min at 485 nm (excitation wavelength) and 535 nm (emission wavelength) (Varioskan Flash Multimode Reader, Thermo Scientific, Waltham, MA, USA), and each sample was prepared and measured for three times independently. […] The net AUC for a sample was calculated using the expression net AUC = AUCsample − AUCblank, The ORAC-FL value of each sample was calculated using the equation of net AUCsample/(AUCTrolox – AUCblank), which was expressed as Trolox equivalents.
# [7] = target: T2, Aβ1–42 (Homo sapiens, UniProt P05067); assay: Inhibition of Cu^2+-induced Aβ1–42 aggregation (ThT-binding assay); format: biochemical; conditions: [Aβ] = 20 μM, [Cu^2+] = 20 μM, [compound] = 40 μM; 37 °C, 24 h
# T2 construct: Aβ1–42 (Sigma, St. Louis, MO, USA; counterion, NaOH) stock solution was prepared by dissolving Aβ1–42 peptide in ammonium hydroxide; purchased Sigma
# Procedure: To investigate the ability of compound 6b1 to inhibit Cu^2+-induced Aβ1–42 aggregation, the ThT-binding assay was performed.
# Aβ was diluted in […] (pH 6.6) with […]. The mixture of the peptide (10 μL, 20 μM, final concentration) with or without copper (10 μL, 20 μM, final concentration) and the test compound (10 μL, 40 μM, final concentration) was incubated at 37 °C for 24 h. The 30 μL of the sample was diluted to a final volume of 200 μL with 50 mM glycine-NaOH buffer (pH 8.0) containing thioflavin T (5 μM). The detection method was the same as that of self-induced Aβ aggregation experiment.
# [8] = compound 10 μM, metal ions 20 μM, ethanol
# Sequence of BuChE (P06276 29-602): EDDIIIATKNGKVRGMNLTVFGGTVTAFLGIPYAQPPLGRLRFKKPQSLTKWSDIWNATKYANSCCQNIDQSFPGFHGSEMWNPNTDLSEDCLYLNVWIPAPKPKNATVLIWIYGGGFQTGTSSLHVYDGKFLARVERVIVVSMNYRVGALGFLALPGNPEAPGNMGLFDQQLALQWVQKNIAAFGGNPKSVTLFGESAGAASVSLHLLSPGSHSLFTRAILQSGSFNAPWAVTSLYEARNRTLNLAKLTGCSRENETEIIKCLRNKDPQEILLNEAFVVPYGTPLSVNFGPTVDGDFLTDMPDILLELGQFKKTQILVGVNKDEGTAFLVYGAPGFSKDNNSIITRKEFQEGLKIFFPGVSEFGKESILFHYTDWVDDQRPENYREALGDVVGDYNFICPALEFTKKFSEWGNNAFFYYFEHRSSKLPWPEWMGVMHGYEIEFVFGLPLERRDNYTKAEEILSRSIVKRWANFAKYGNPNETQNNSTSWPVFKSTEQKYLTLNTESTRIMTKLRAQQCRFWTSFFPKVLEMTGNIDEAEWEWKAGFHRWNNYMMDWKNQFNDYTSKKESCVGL
# Sequence of AChE (P22303 32-614): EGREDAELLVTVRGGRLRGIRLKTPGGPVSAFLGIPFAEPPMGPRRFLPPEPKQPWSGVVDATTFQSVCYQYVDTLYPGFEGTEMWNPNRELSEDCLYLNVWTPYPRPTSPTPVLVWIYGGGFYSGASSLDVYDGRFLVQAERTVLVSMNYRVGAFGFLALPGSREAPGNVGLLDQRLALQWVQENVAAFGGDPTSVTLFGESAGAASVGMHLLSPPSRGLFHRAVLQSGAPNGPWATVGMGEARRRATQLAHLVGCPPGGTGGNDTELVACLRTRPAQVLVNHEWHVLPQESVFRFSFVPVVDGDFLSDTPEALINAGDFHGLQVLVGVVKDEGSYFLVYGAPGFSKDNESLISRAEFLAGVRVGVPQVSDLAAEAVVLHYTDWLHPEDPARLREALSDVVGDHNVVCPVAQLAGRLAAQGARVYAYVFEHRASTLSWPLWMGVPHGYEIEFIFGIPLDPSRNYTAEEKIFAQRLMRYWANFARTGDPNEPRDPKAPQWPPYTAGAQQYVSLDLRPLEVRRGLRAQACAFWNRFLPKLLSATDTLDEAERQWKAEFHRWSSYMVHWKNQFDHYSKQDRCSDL
# T2 sequence (P05067 672-713): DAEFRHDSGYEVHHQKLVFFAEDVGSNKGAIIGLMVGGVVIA
# T1 sequence (P05067 672-713): as above
smiles,measurement,setting,value
"CCN(CC)c1ccc(/C=C/c2cc(NCCCN(C)C)c3ccccc3n2)cc1 [Compound 6b1, (E)-N^1-(2-(4-(Diethylamino)styryl)quinolin-4-yl)-N^3,N^3-dimethylpropane-1,3-diamine]",Improvement of memory impairment compared with model group,[1]; 4.0 mg/kg (low dose),didn’t exhibit significant improvement
same,Latency time,[1]; 16.0 mg/kg (high dose),182 s
same,Number of errors,[1]; 16.0 mg/kg (high dose),2.72
same,Inhibitory activity toward AChE,[2],weak
same,Inhibitory activity toward BuChE,[3],weak
same,Disaggregation ratio of self-induced Aβ1–42 fibrils,[4],64.3%
same,"Binding to Na^+, K^+, Mg^2+, Ca^2+ (UV-vis)",[5]; [8],may not bind to these metal ions
same,"Interaction with Cu^2+, Fe^2+, Zn^2+ (UV-vis)",[5]; [8],form the complex
same,Selectivity of metal chelation for Cu^2+ versus other metal ions,"[5]; versus Zn^2+, Fe^2+, Ca^2+, Mg^2+, Na^+, K^+",good selectivity of metal chelation for Cu^2+
same,ORAC,[6],6.23 ± 0.05 μmol of Trolox equivalents/μmol of tested compounds
same,Inhibition of Cu^2+-induced Aβ aggregation,[7],85.8%
